Measured values published in patent US20220204509A1, “PYRIMIDO FIVE-MEMBERED HETEROCYCLIC COMPOUND AND USE THEREOF AS MUTANT IDH2 INHIBITOR” (EPITAS BIOSCIENCES (SHANGHAI) CO., LTD., priority 2019, published 2022).

What was measured:
[1] = target: T1, IDH2/R140Q (Homo sapiens, UniProt P48735, R140Q); experiment: Determination of the inhibitory activity of the compounds on IDH2/R140Q (NADPH reduction, resazurin/lipoamide dehydrogenase detection); type: biochemical; parameters: purchased Abcam ab198153; conditions: IDH2/R140Q inhibitory activity, read-out: IC50
T1 sequence (P48735 40-452 R140Q): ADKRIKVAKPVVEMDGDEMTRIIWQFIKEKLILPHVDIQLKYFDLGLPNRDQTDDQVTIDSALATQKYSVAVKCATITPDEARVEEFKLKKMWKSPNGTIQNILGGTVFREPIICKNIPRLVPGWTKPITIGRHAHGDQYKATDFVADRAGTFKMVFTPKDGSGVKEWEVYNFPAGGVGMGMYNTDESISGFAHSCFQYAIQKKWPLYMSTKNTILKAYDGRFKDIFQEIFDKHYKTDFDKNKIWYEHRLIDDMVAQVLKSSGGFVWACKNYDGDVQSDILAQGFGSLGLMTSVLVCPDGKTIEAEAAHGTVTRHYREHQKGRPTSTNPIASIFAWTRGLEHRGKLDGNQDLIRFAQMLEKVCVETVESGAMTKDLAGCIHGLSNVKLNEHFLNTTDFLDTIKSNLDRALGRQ
Procedure: In this example, the inhibitory activity of a compound on IDH2/R140Q was determined by measuring the reduction of the cofactor NADPH. The compound was incubated with IDH2/R140Q and NADPH, and then the reaction was initiated by adding α-KG. After a certain time of reaction under linear conditions, lipoamide dehydrogenase and the corresponding substrate resazurin were added for detection. Lipoamide dehydrogenase terminated the IDH2/R140Q reaction bγ subtracting the available cofactor NADPH. It oxidized NADPH to NADP, and reduced resazurin to highly fluorescent resorufin. The production of resorufin was detected to quantify the amount of cofactor NADPH remaining after a specific reaction time.
Then 25 μL of a stop mixed solution (lipoamide dehydrogenase 36 μg/mL, resazurin 30 μM) prepared with the above reaction buffer was added to convert resazurin to resorufin to measure the remaining NADPH. After 10 minutes of incubation at 25° C., the fluorescence value was measured by Tecan […] […] The enzyme activity was measured at 10 concentrations for each compound, and multiple background holes without enzyme and full enzyme activity holes without compound were set up in the reaction. The concentration of dimethyl sulfoxide in the system was less than or equal to 2%. […] The multi-well plate in this example was purchased from Thermo Fisher Scientific, NADPH, α-KG, lipoamide dehydrogenase, and resazurin were purchased from Shenggong Bioengineering Co., Ltd., and IDH2/R140Q was purchased from Abcam (ab198153).

[2] = target: T1, IDH2/R140Q; experiment: Inhibition of mutant IDH2 activity at the cell level (extracellular 2-HG, U87MG overexpressing IDH2/R140Q); type: cell-based; conditions: U87MG overexpressing IDH2/R140Q; 2-HG in medium after 24 hours of culturing with compound; read-out: IC50
Procedure: 2-hydroxyglutarate dehydrogenase (2HGDH) can reduce NAD+ to NADH in the presence of 2-HG. The latter can be quantitatively detected by diaphorase and its substrate Resazurin.
The glioma cells U87MG overexpressing IDH2/R140Q mutation were cultured in 1% sodium pyruvate high-sugar MEM, 10% FBS, and placed in a CO2 incubator (37° C., 5% CO2, 95% air) for cultivation.
The cells were digested with trypsin and seeded in a 96-well plate at a density of 1×10^4 with a medium of 200 μL and cultured in a 37° C. incubator overnight. The next day, the test compound was added to a final concentration of 0.1% for DMSO. […] The protein and other components in the medium that may interfere with the results were filtered, and the follow-up method was used to detect the content of 2-HG. 50 uL CellTiter-Glo (purchased from Promega) was added to the 96-well plate with the remaining 100 μL of medium to detect cell survival;
Extracellular 2-HG detecting system:
(1) 50 μL reaction system: reaction buffer (50 mM Tris pH7.5, 100 mM NaCl, 20 mM MgCl2, 0.05% BSA), in which the final concentration of NAD+ was 40 μM, the final concentration of 2HGDH was 20 nM, and the test sample was added to 5 μL of medium; the reaction solution was mixed and centrifuged, and the reaction was carried out for 1 hour at 25° C. in the dark;
Preparation of 2-HG standard curve: a 2-HG stock solution was diluted to 20 μM with reaction buffer, and a 2-fold gradient diluting was performed for a total of 6 points. Afterwards, the above-mentioned 2-HG was measured according to the extracellular 2-HG detecting system, and a standard curve was calculated and drawn.
Calculation of extracellular 2-HG content:
The fluorescence value obtained in the extracellular 2-HG detecting system was calculated using the 2-HG standard curve to calculate the content of 2-HG in the medium, and DMSO was used as a negative control to calculate the compound's inhibition against IDH2/R140Q mutation producing 2-HG activity.

[3] = pre-incubated at 25° C. for 16 hours

Row | IC50 [1, 3] [µM] | IC50 [2] [µM] | IC50 ([1]; cells marked (1 h)) [µM] | Compound
1 | > 10 | > 10 |  | CC(C)Nc1nc(-c2ccccc2)nc2[nH]c(-c3ccccc3)cc12 [Compound 46, N-isopropyl 2,6-diphenyl-7H-pyrrolo[2,3-d]pyrimidin-4-amine]
2 |  | > 10 | > 10 | CC(C)n1cnc2c(-c3ccccc3)nc(Nc3ccccc3)nc21 [Compound 12, 9-isopropyl-N,6-diphenyl-9H-purin-2-amine]
3 | > 10 | > 10 |  | Cc1cc2c(-c3ccccc3)nc(NC(C)C)nc2[nH]1 [Compound 40, N-isopropyl-6-methyl-4-phenyl-7H-pyrrolo[2,3-d]pyrimidin-2-amine]
4 | 1 to 10 | 1 to 10 |  | Cc1cc2c(NCC3CC3)nc(-c3ccccc3)nc2[nH]1 [Compound 29, N-(cyclopropylmethyl)-6-methyl-2-phenyl-7H-pyrrole[2,3-d]pyrimidin-4-amine]
5 | 0.1 to 1 | 1 to 10 |  | Cc1cc2c(Nc3ccccc3)nc(-c3ccccc3)nc2[nH]1 [Compound 8, 6-methyl-N,2-diphenyl-7H-pyrrolo[2,3-d]pyrimidin-4-amine]
6 | 0.1 to 1 | 0.1 to 1 |  | Cc1cc2c(Nc3ccccc3)nc(-c3ccccc3F)nc2[nH]1 [Compound 50, 2-(2-fluorophenyl)-6-methyl-N-phenyl-7H-pyrrolo[2,3-d]pyrimidin-4-amine]
7 | > 10 | > 10 |  | Cc1cc2c(NC(C)C)nc(-c3ccncc3)nc2[nH]1 [Compound 18, N-isopropyl-6-methyl-2-(pyridin-4-yl)-7H-pyrrolo[2,3-d]pyrimidin-4-amine]
8 |  |  | > 10 | Cn1ccc2c(Nc3ccccc3)nc(-c3ccccc3)nc21 [Compound 11, 7-methyl-N,2-diphenyl-7H-pyrrolo[2,3-d]pyrimidin-4-amine]
9 | 0.1 to 1 | 1 to 10 |  | Cc1cc2c(Nc3ccnc(C(F)(F)F)c3)nc(-c3ccccc3)nc2[nH]1 [Compound 20, 6-methyl-2-phenyl-N-(2-(trifluoromethyl)pyridin-4-yl)-7H-pyrrolo[2,3-d]pyrimidin-4-amine]
10 | 0.1 to 1 | 0.1 to 1 |  | Cc1cc2c(NCC(C)C)nc(-c3ccccc3)nc2[nH]1 [Compound 39, N-isobutyl-6-methyl-2-phenyl-7H-pyrrolo[2,3-d]pyrimidin-4-amine]
11 | < 0.1 | < 0.1 |  | CC(C)Nc1nc(-c2ccccc2)nc2[nH]c(C(F)(F)F)cc12 [Compound 49, N-isopropyl-2-phenyl-6-(trifluoromethyl)-7H-pyrrolo[2,3-d]pyrimidin-4-amine]
12 | > 10 | > 10 |  | c1ccc(Nc2nc(-c3ccccc3)nc3[nH]ccc23)cc1 [Compound 19, N,2-diphenyl-7H-pyrrolo[2,3-d]pyrimidin-4-amine]
13 | > 10 | > 10 |  | Cc1cc2c(NC(C)C)nc(-c3cccnc3)nc2[nH]1 [Compound 17, N-isopropyl-6-methyl-2-(pyridin-3-yl)-7H-pyrrolo[2,3-d]pyrimidin-4-amine]
14 |  | > 10 | > 10 | CC(C)n1cnc2c(Nc3ccnc(C(F)(F)F)c3)nc(-c3cccc(C(F)(F)F)n3)nc21 [Compound 4, 9-isopropyl-2-(6-(trifluoromethyl)pyridin-2-yl)-N-(2-(trifluoromethyl)pyridin-4-yl)-9H-purine-6-amine]
15 | 1 to 10 | 1 to 10 |  | Cc1cc2c(Nc3cccc(Cl)c3)nc(-c3ccccc3)nc2[nH]1 [Compound 41, N-(3-chlorophenyl)-6-methyl-2-phenyl-7H-pyrrolo[2,3-d]pyrimidin-4-amine]
16 | 1 to 10 | 1 to 10 |  | Cc1cc2c(Nc3cccc(F)c3)nc(-c3ccccc3)nc2[nH]1 [Compound 31, N-(3-fluorophenyl)-6-methyl-2-phenyl-7H-pyrrolo[2,3-d]pyrimidin-4-amine]

Row | IC50 [1, 3] [µM] | IC50 [2] [µM] | IC50 ([1]; cells marked (1 h)) [µM] | Compound
17 |  | > 10 | > 10 | c1ccc(Nc2nc(-c3ccccc3)nc3[nH]cnc23)cc1 [Compound 6, N,2-diphenyl-9H-purin-6-amine]
18 | > 10 |  |  | Cc1cc2c(-c3ccccc3)nc(-c3ccccc3)nc2[nH]1 [Compound 26, 6-methyl-2,4-diphenyl-7H-pyrrolo[2,3-d]pyrimidine]
19 | 1 to 10 | 0.1 to 1 |  | Cc1cc2c(NC3CC3)nc(-c3ccccc3C)nc2[nH]1 [Compound 43, N-cyclopropyl-6-methyl-2-(o-tolyl)-7H-pyrrolo[2,3-d]pyrimidin-4-amine]
20 | > 10 |  |  | Cc1cc2c(NC3CC3)nc(-c3ccc4ccccc4c3)nc2[nH]1 [Compound 15, N-cyclopropyl-6-methyl-2-(naphthalene-2-yl)-7H-pyrrolo[2,3-d]pyrimidin-4-amine]
21 |  | > 10 | > 10 | Cc1nc2c(Nc3ccccc3)nc(-c3ccccc3)nc2[nH]1 [Compound 14, 8-methyl-N,2-diphenyl-9H-purin-6-amine]
22 | 1 to 10 | 1 to 10 |  | CCOC(=O)Cc1cc2c(Nc3ccccc3)nc(-c3ccccc3)nc2[nH]1 [Compound 44]
23 | 1 to 10 | 1 to 10 |  | Cc1cc2c(NC3CCCCC3)nc(-c3ccccc3)nc2[nH]1 [Compound 37, N-cyclohexyl-6-methyl-2-phenyl-7H-pyrrolo[2,3-d]pyrimidin-4-amine]
24 | 0.1 to 1 | 0.1 to 1 |  | Cc1cc2c(NC3CC3)nc(-c3ccc(O)cc3)nc2[nH]1 [Compound 47, 4-(4-(cyclopropylamino)-6-methyl-7H-pyrrolo[2,3-d]pyrimidin-2-yl)phenol]
25 | > 10 | > 10 |  | Cn1cnc2c(Nc3ccccc3)nc(-c3ccccc3)nc21 [Compound 24, 9-methyl-N,2-diphenyl-9H-purin-6-amine]
26 | > 10 |  |  | Cc1cc2c(NC(C)(C)C)nc(-c3ccccc3)nc2[nH]1 [Compound 27, N-(tert-butyl)-6-methyl-2-phenyl-7H-pyrrolo[2,3-d]pyrimidin-4-amine]
27 |  |  | > 10 | CC(C)n1cnc2c(Nc3ccccc3)nc(-c3ccccc3)nc21 [Compound 1, 9-isopropyl-N,2-diphenyl-9H-purin-6-amine]
28 |  |  | > 10 | COc1ccccc1Nc1nc(-c2ccccc2)nc2c1ncn2C(C)C [Compound 2, 9-isopropyl-N-(2-methoxyphenyl)-2-phenyl-9H-purin-6-amine]
29 | > 10 |  |  | Cc1cc2c(NCc3ccccc3)nc(-c3ccccc3)nc2[nH]1 [Compound 30, N-benzyl-6-methyl-2-phenyl-7H-pyrrolo[2,3-d]pyrimidin-4-amine]
30 | > 10 |  |  | CC(C)Nc1nc(-c2ccccc2)nc2[nH]c(Br)cc12 [Compound 33, 6-bromo-N-isopropyl-2-phenyl-7H-pyrrolo[2,3-d]pyrimidin-4-amine]
31 | > 10 |  |  | CC(C)Nc1nc(-c2ccccc2)nc2[nH]ccc12 [Compound 32, N-isopropyl-2-phenyl-7H-pyrrolo[2,3-d]pyrimidin-4-amine]
32 | > 10 |  |  | Cc1cc2c(NCC(C)(C)O)nc(-c3ccccc3)nc2[nH]1 [Compound 35, 2-methyl-1-((6-methyl-2-phenyl-7H-pyrrolo[2,3-d]pyrimidin-4-yl)amino)propan-2-ol]
